Measurements published in patent US8030498B2, “Benzoylpyrazole compounds and herbicides containing them” (Ishihara Sangyo Kaisha, Ltd., priority 2005, dated 2011).

Columns and labels:
[1] = test system: rice (Oryza sativa L.); assay: Test Example 1: foliar treatment, growth inhibition rate, rice; format: in vivo; settings: visually observed 17th to 23rd day after application; for pest or weed control at 31 g/ha: Oryza sativa
Source text: (§1) Upland field soil was put into a 1/170,000 hectare pot, and seeds of various plants were sown. When the respective plants reached predetermined leaf stage ((1) barnyardgrass (Echinochloa crus-galli L.); 0.8 to 2.5 leaf stage, (2) crabgrass (Digitaria sanguinalis L.): 0.5 to 3.0 leaf stage, (3) greenfoxtail (Setaria viridis L.): 1.0 to 3.0 leaf stage, (4) redroot pigweed (Amaranthus retroflexus L.): cotyledon stage to 2.0 leaf stage, (5) prickly sida (Sida spinosa L.): cotyledon stage to 1.1 leaf stage, (6) velvetleaf (Abutilon theophrasti MEDIC.): cotyledon stage to 1.5 leaf stage, (7) rice (Oryza sativa L.): 1.0 to 2.5 leaf stage, (8) wheat (Triticum spp.): 1.7 to 3.4 leaf stage, (9) corn (Zea mays L.): 2.0 to 3.5 leaf stage, and (10) soybean (Glycine max Merr.): primary leaf stage to 0.3 leaf stage), wettable powders or emulsifiable concentrates of the compounds of the present invention prepared in accordance with a conventional preparation method, were weighed so that the active ingredients became the prescribed amounts, and diluted with water in an amount corresponding to 500 liter per 1 hectare. 0.1 vol % of an agricultural spreader was further added to the respective diluted liquids, followed by foliar treatment with a small sprayer.
(§2) On the 17th to 23rd day after application, the state of growth of the respective plants was visually observed, and the herbicidal effect was evaluated in accordance with a growth inhibition rate (%) of 0 (equivalent to the non-treated area) to 100% (complete kill).

[2] = test system: barnyardgrass; assay: Test Example 2: soil application on the day after sowing, growth inhibition rate, barnyardgrass; format: in vivo, Echinochloa crus-galli L.; settings: 250 g/ha active ingredient, observed on 19th to 24th day; for inhibition at 250 g/ha: Echinochloa crus-galli
Source text: (§3) Upland field soil was put into a 1/170,000 hectare pot, and seeds of various plants (barnyardgrass, crabgrass, greenfoxtail, redroot pigweed, prickly sida, velvetleaf, rice, wheat, corn and soybean) were sown. On the day after sowing, wettable powders or emulsifiable concentrates of the compounds of the present invention prepared in accordance with a conventional preparation method, were weighed so that the active ingredients became the prescribed amounts, and diluted with water in an amount corresponding to 500 liter per 1 hectare, followed by soil application with a small sprayer. On the 19th to 24th day after the application, the state of growth of the respective plants was visually observed, and the herbicidal effect was evaluated in accordance with a growth inhibition rate (%) of from 0 (equivalent to the non-treated area) to 100% (complete kill).

[3] = test system: corn (Zea mays L.); assay: Test Example 1: foliar treatment, growth inhibition rate, corn; format: in vivo; settings: visually observed 17th to 23rd day after application; for pest or weed control at 31 g/ha: Zea mays
Source text: as §1, §2

[4] = test system: velvetleaf; assay: Test Example 2: soil application on the day after sowing, growth inhibition rate, velvetleaf; format: in vivo, Abutilon theophrasti MEDIC.; settings: 250 g/ha active ingredient, observed on 19th to 24th day; for inhibition at 250 g/ha: Abutilon theophrasti
Source text: as §3

[5] = test system: prickly sida; assay: Test Example 2: soil application on the day after sowing, growth inhibition rate, prickly sida; format: in vivo, Sida spinosa L.; settings: 250 g/ha active ingredient, observed on 19th to 24th day; for inhibition at 250 g/ha: Sida spinosa
Source text: as §3

[6] = test system: barnyardgrass (Echinochloa crus-galli L.); assay: Test Example 1: foliar treatment, growth inhibition rate, barnyardgrass; format: in vivo; settings: visually observed 17th to 23rd day after application; for pest or weed control at 31 g/ha: Echinochloa crus-galli
Source text: as §1, §2

[7] = test system: wheat; assay: Test Example 2: soil application on the day after sowing, growth inhibition rate, wheat; format: in vivo, Triticum spp.; settings: 250 g/ha active ingredient, observed on 19th to 24th day; for inhibition at 250 g/ha: Triticum aestivum
Source text: as §3

[8] = test system: velvetleaf (Abutilon theophrasti MEDIC.); assay: Test Example 1: foliar treatment, growth inhibition rate, velvetleaf; format: in vivo; settings: visually observed 17th to 23rd day after application; for pest or weed control at 31 g/ha: Abutilon theophrasti
Source text: as §1, §2

[9] = test system: greenfoxtail; assay: Test Example 2: soil application on the day after sowing, growth inhibition rate, greenfoxtail; format: in vivo, Setaria viridis L.; settings: 250 g/ha active ingredient, observed on 19th to 24th day; for inhibition at 250 g/ha: Setaria viridis
Source text: as §3

[10] = test system: redroot pigweed (Amaranthus retroflexus L.); assay: Test Example 1: foliar treatment, growth inhibition rate, redroot pigweed; format: in vivo; settings: visually observed 17th to 23rd day after application
Source text: as §1, §2

[11] = test system: greenfoxtail (Setaria viridis L.); assay: Test Example 1: foliar treatment, growth inhibition rate, greenfoxtail; format: in vivo; settings: visually observed 17th to 23rd day after application; for pest or weed control at 31 g/ha: Setaria viridis
Source text: as §1, §2

[12] = test system: rice; assay: Test Example 2: soil application on the day after sowing, growth inhibition rate, rice; format: in vivo, Oryza sativa L.; settings: 250 g/ha active ingredient, observed on 19th to 24th day; for inhibition at 250 g/ha: Oryza sativa
Source text: as §3

[13] = test system: redroot pigweed; assay: Test Example 2: soil application on the day after sowing, growth inhibition rate, redroot pigweed; format: in vivo, Amaranthus retroflexus L.; settings: 250 g/ha active ingredient, observed on 19th to 24th day; for inhibition at 250 g/ha: Amaranthus retroflexus
Source text: as §3

[14] = test system: corn; assay: Test Example 2: soil application on the day after sowing, growth inhibition rate, corn; format: in vivo, Zea mays L.; settings: 250 g/ha active ingredient, observed on 19th to 24th day; for inhibition at 250 g/ha: Zea mays
Source text: as §3

[15] = test system: prickly sida (Sida spinosa L.); assay: Test Example 1: foliar treatment, growth inhibition rate, prickly sida; format: in vivo; settings: visually observed 17th to 23rd day after application
Source text: as §1, §2

[16] = test system: crabgrass (Digitaria sanguinalis L.); assay: Test Example 1: foliar treatment, growth inhibition rate, crabgrass; format: in vivo; settings: visually observed 17th to 23rd day after application; for pest or weed control at 31 g/ha: Digitaria sanguinalis
Source text: as §1, §2

[17] = test system: crabgrass; assay: Test Example 2: soil application on the day after sowing, growth inhibition rate, crabgrass; format: in vivo, Digitaria sanguinalis L.; settings: 250 g/ha active ingredient, observed on 19th to 24th day; for inhibition at 250 g/ha: Digitaria sanguinalis
Source text: as §3

[18] = test system: wheat (Triticum spp.); assay: Test Example 1: foliar treatment, growth inhibition rate, wheat; format: in vivo; settings: visually observed 17th to 23rd day after application; for pest or weed control at 31 g/ha: Triticum
Source text: as §1, §2

[19] = test system: soybean (Glycine max Merr.); assay: Test Example 1: foliar treatment, growth inhibition rate, soybean; format: in vivo; settings: visually observed 17th to 23rd day after application
Source text: as §1, §2

[20] = test system: soybean; assay: Test Example 2: soil application on the day after sowing, growth inhibition rate, soybean; format: in vivo, Glycine max Merr.; settings: 250 g/ha active ingredient, observed on 19th to 24th day
Source text: as §3

Structure (SMILES) | Growth inhibition rate (%) redroot pigweed ([10]; 31 g/ha active ingredient) | Growth inhibition rate (%) Prickly sida ([15]; 31 g/ha active ingredient) | Growth inhibition rate (%) Soybean ([19]; 31 g/ha active ingredient) | Growth inhibition rate (%) Rice ([1]; 31 g/ha active ingredient) | Growth inhibition rate (%) Barnyardgrass [2] | Growth inhibition rate (%) Corn ([3]; 31 g/ha active ingredient) | Growth inhibition rate (%) Velvetleaf [4] | Growth inhibition rate (%) Prickly sida [5] | Growth inhibition rate (%) Barnyardgrass ([6]; 31 g/ha active ingredient) | Growth inhibition rate (%) Velvetleaf ([8]; 31 g/ha active ingredient) | Growth inhibition rate (%) Greenfoxtail [9] | Growth inhibition rate (%) Greenfoxtail ([11]; 31 g/ha active ingredient) | Growth inhibition rate (%) Rice [12] | Growth inhibition rate (%) redroot pigweed [13] | Growth inhibition rate (%) Corn [14] | Growth inhibition rate (%) Crabgrass ([16]; 31 g/ha active ingredient) | Growth inhibition rate (%) Crabgrass [17] | Growth inhibition rate (%) Wheat ([18]; 31 g/ha active ingredient) | Growth inhibition rate (%) Soybean [20] | other results
CCSC(=O)Oc1c(C(=O)c2ccc(S(C)(=O)=O)c(C(=O)OC)c2C)cnn1CC [Compound No. 2, 1-ethyl-5-(ethylthio)carbonyloxypyrazol-4-yl 3-(methoxycarbonyl)-2-methyl-4-(methylsulfonyl)phenyl ketone] | 95% | 95% |  |  |  |  |  |  |  |  |  |  |  |  |  |  |  |  |  | pest or weed control at 31 g/ha ([1]; 31 g/ha active ingredient): 95%; inhibition at 250 g/ha [2]: 100%; pest or weed control at 31 g/ha ([3]; 31 g/ha active ingredient): 10%; inhibition at 250 g/ha [4]: 60%; inhibition at 250 g/ha [5]: 95%; pest or weed control at 31 g/ha ([6]; 31 g/ha active ingredient): 95%; inhibition at 250 g/ha [7]: 40%; pest or weed control at 31 g/ha ([8]; 31 g/ha active ingredient): 95%; inhibition at 250 g/ha [9]: 98%; pest or weed control at 31 g/ha ([11]; 31 g/ha active ingredient): 100%; inhibition at 250 g/ha [12]: 100%; inhibition at 250 g/ha [13]: 100%; inhibition at 250 g/ha [14]: 0%; pest or weed control at 31 g/ha ([16]; 31 g/ha active ingredient): 90%; inhibition at 250 g/ha [17]: 100%; pest or weed control at 31 g/ha ([18]; 31 g/ha active ingredient): 30%
CCSC(=O)Oc1c(C(=O)c2ccc(S(C)(=O)=O)c(OCCOC)c2C)cnn1CC [Compound No. 16, 5-(ethylthio)carbonyloxy-1-ethylpyrazol-4-yl 3-(2-methoxyethoxy)-2-methyl-4-(methylsulfonyl)phenyl ketone] |  | 40% | 95% |  |  |  |  |  |  |  |  |  |  |  |  |  |  |  |  | pest or weed control at 31 g/ha ([1]; 31 g/ha active ingredient): 90%; inhibition at 250 g/ha [2]: 100%; pest or weed control at 31 g/ha ([3]; 31 g/ha active ingredient): 0%; inhibition at 250 g/ha [4]: 0%; inhibition at 250 g/ha [5]: 10%; pest or weed control at 31 g/ha ([6]; 31 g/ha active ingredient): 100%; inhibition at 250 g/ha [7]: 0%; pest or weed control at 31 g/ha ([8]; 31 g/ha active ingredient): 100%; inhibition at 250 g/ha [9]: 98%; pest or weed control at 31 g/ha ([11]; 31 g/ha active ingredient): 100%; inhibition at 250 g/ha [12]: 98%; inhibition at 250 g/ha [13]: 100%; inhibition at 250 g/ha [14]: 0%; pest or weed control at 31 g/ha ([16]; 31 g/ha active ingredient): 100%; inhibition at 250 g/ha [17]: 100%; pest or weed control at 31 g/ha ([18]; 31 g/ha active ingredient): 0%
CCSC(=O)Oc1c(C(=O)c2ccc(S(C)(=O)=O)c(COCC(F)(F)F)c2C)cnn1C [compound 69] | 85% | 70% | 98% | 80% | 70% | 50% | 70% | 70% | 95% | 95% | 50% | 95% | 70% | 100% | 0% | 98% | 95% | 0% |  | Growth inhibition rate (%) Wheat [7]: 0%
CCSC(=O)Oc1c(C(=O)c2ccc(S(C)(=O)=O)c(OCC3CCCCO3)c2C)cnn1C (centres unmarked) [compound 215] | 95% | 50% | 95% | 70% | 90% | 30% | 0% | 40% | 100% | 50% | 70% | 70% | 90% | 60% | 0% | 60% | 95% | 0% |  | Growth inhibition rate (%) Wheat [7]: 0%
CCSC(=O)Oc1c(C(=O)c2ccc(S(C)(=O)=O)c(OC(C)COC)c2C)cnn1C (centres unmarked) [compound 236] | 90% | 40% | 95% | 80% | 98% | 0% | 0% | 30% | 60% | 70% | 10% | 40% | 70% | 100% | 0% | 50% | 95% | 0% | 0% | 
CCSC(=O)Oc1c(C(=O)c2ccc(S(C)(=O)=O)c(CSC#N)c2C)cnn1C [compound 231] |  |  |  |  | 70% |  | 0% | 0% |  |  | 0% |  | 0% | 50% | 0% |  | 60% |  | 0% | Growth inhibition rate (%) Rice ([1]; 63 g/ha active ingredient): 50%; Growth inhibition rate (%) Corn ([3]; 63 g/ha active ingredient): 0%; Growth inhibition rate (%) Soybean ([19]; 63 g/ha active ingredient): 100%; Growth inhibition rate (%) Barnyardgrass ([6]; 63 g/ha active ingredient): 100%; Growth inhibition rate (%) Velvetleaf ([8]; 63 g/ha active ingredient): 80%; Growth inhibition rate (%) redroot pigweed ([10]; 63 g/ha active ingredient): 80%; Growth inhibition rate (%) Greenfoxtail ([11]; 63 g/ha active ingredient): 40%; Growth inhibition rate (%) Prickly sida ([15]; 63 g/ha active ingredient): 40%; Growth inhibition rate (%) Crabgrass ([16]; 63 g/ha active ingredient): 70%; Growth inhibition rate (%) Wheat ([18]; 63 g/ha active ingredient): 0%
CCSC(=O)Oc1c(C(=O)c2ccc(S(C)(=O)=O)c(S(C)(=O)=O)c2Cl)cnn1C [compound 224] |  |  |  |  | 100% |  | 70% | 75% |  |  | 98% |  | 98% | 100% | 10% |  | 100% |  | 50% | Growth inhibition rate (%) Rice ([1]; 63 g/ha active ingredient): 20%; Growth inhibition rate (%) Corn ([3]; 63 g/ha active ingredient): 0%; Growth inhibition rate (%) Soybean ([19]; 63 g/ha active ingredient): 100%; Growth inhibition rate (%) Barnyardgrass ([6]; 63 g/ha active ingredient): 95%; Growth inhibition rate (%) Velvetleaf ([8]; 63 g/ha active ingredient): 60%; Growth inhibition rate (%) redroot pigweed ([10]; 63 g/ha active ingredient): 95%; Growth inhibition rate (%) Greenfoxtail ([11]; 63 g/ha active ingredient): 70%; Growth inhibition rate (%) Prickly sida ([15]; 63 g/ha active ingredient): 70%; Growth inhibition rate (%) Crabgrass ([16]; 63 g/ha active ingredient): 60%; Growth inhibition rate (%) Wheat ([18]; 63 g/ha active ingredient): 0%
